Data published in PubChem BioAssay (NCI).
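96-well plates; 48 h exposure; 5 concentrations. Endpoints by linear interpolation between flanking doses. Not reached: highest tested concentration assigned. TGI: total growth inhibition.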

What was measured:
Assay in all cases: NCI tumour cell line growth inhibition, 48 h
MCF7 breast = system: MCF7 breast
OVCAR-8 ovarian = system: OVCAR-8 ovarian
HCT-15 colon = system: HCT-15 colon
SK-MEL-5 melanoma = system: SK-MEL-5 melanoma
XF 498 CNS = system: XF 498 CNS
P388 leukemia = system: P388 leukemia
EKVX NSCLC = system: EKVX NSCLC
SF-268 CNS = system: SF-268 CNS
SN12K1 renal = system: SN12K1 renal
COLO 205 colon = system: COLO 205 colon
IGROV1 ovarian = system: IGROV1 ovarian
NCI-H226 lung = system: NCI-H226 lung
LOX IMVI melanoma = system: LOX IMVI melanoma
OVCAR-3 ovarian = system: OVCAR-3 ovarian
HOP-92 NSCLC = system: HOP-92 NSCLC
UO-31 renal = system: UO-31 renal
P388/ADR leukemia = system: P388/ADR leukemia
NCI/ADR-RES ovarian = system: NCI/ADR-RES ovarian
HOP-18 NSCLC = system: HOP-18 NSCLC
SN12C renal = system: SN12C renal
SNB-75 CNS = system: SNB-75 CNS
HOP-62 NSCLC = system: HOP-62 NSCLC
KM12 colon = system: KM12 colon
DMS 114 small cell lung = system: DMS 114 small cell lung
A549 NSCLC = system: A549 NSCLC
K-562 leukemia = system: K-562 leukemia
M19-MEL melanoma = system: M19-MEL melanoma
NCI-H23 lung = system: NCI-H23 lung
MALME-3M melanoma = system: MALME-3M melanoma
SK-MEL-2 melanoma = system: SK-MEL-2 melanoma
MOLT-4 leukemia = system: MOLT-4 leukemia
HL-60(TB) leukemia = system: HL-60(TB) leukemia
SK-MEL-28 melanoma = system: SK-MEL-28 melanoma
HCC-2998 colon = system: HCC-2998 colon
OVCAR-4 ovarian = system: OVCAR-4 ovarian
RPMI-8226 leukemia = system: RPMI-8226 leukemia
SNB-19 CNS = system: SNB-19 CNS
NCI-H460 lung = system: NCI-H460 lung
SW-620 colon = system: SW-620 colon
CAKI-1 renal = system: CAKI-1 renal
UACC-62 melanoma = system: UACC-62 melanoma
UACC-257 melanoma = system: UACC-257 melanoma
HT29 colon = system: HT29 colon
RXF 393 renal = system: RXF 393 renal
HCT-116 colon = system: HCT-116 colon
SF-539 CNS = system: SF-539 CNS
CCRF-CEM leukemia = system: CCRF-CEM leukemia
SNB-78 CNS = system: SNB-78 CNS
KM20L2 colon = system: KM20L2 colon
NCI-H522 lung = system: NCI-H522 lung
SF-295 CNS = system: SF-295 CNS
SK-OV-3 ovarian = system: SK-OV-3 ovarian
A498 renal = system: A498 renal
DLD-1 colon = system: DLD-1 colon
OVCAR-5 ovarian = system: OVCAR-5 ovarian
U251 CNS = system: U251 CNS
DMS 273 small cell lung = system: DMS 273 small cell lung
LXFL 529 NSCLC = system: LXFL 529 NSCLC
PC-3 prostate = system: PC-3 prostate
RXF-631 renal = system: RXF-631 renal
DU-145 prostate = system: DU-145 prostate
TK-10 renal = system: TK-10 renal
ACHN renal = system: ACHN renal
SR leukemia = system: SR leukemia
MDA-MB-231 breast = system: MDA-MB-231 breast
786-0 renal = system: 786-0 renal
BT-549 breast = system: BT-549 breast
MDA-N = system: MDA-N
T-47D breast = system: T-47D breast
M14 melanoma = system: M14 melanoma
MDA-MB-435 = system: MDA-MB-435

For `CC1=NCCc2cc3[nH]c4ccccc4c3cc21`, the TGI (MCF7 breast) was 69.7 µM, the TGI (OVCAR-8 ovarian) was greater than 88.5 µM and the TGI (HCT-15 colon) was 78.4 µM. The TGI (SK-MEL-5 melanoma) was 28.1 µM, the TGI (XF 498 CNS) was 30.5 µM and the TGI (P388 leukemia) was 21.9 µM. It also gave a TGI (EKVX NSCLC) of 95.8 µM, a TGI (SF-268 CNS) of 77.7 µM and a TGI (SN12K1 renal) of 44.6 µM. The TGI (COLO 205 colon) was 24.5 µM, the TGI (IGROV1 ovarian) was greater than 85.3 µM and the TGI (NCI-H226 lung) was 37.9 µM. It also gave a TGI (LOX IMVI melanoma) of 37.7 µM, a TGI (OVCAR-3 ovarian) of 114 µM and a TGI (HOP-92 NSCLC) of 5.45 µM. The TGI (UO-31 renal) was 54.9 µM, the TGI (P388/ADR leukemia) was 34.2 µM and the TGI (NCI/ADR-RES ovarian) was 83.8 µM. For the same compound, the TGI (HOP-18 NSCLC) was 50 µM, the TGI (SN12C renal) was 62.9 µM and the TGI (SNB-75 CNS) was 70 µM. The TGI (HOP-62 NSCLC) was 111 µM, the TGI (KM12 colon) was 78.8 µM and the TGI (DMS 114 small cell lung) was 23.4 µM. It also gave a TGI (A549 NSCLC) of 103 µM, a TGI (K-562 leukemia) of 22.9 µM and a TGI (M19-MEL melanoma) of 43.6 µM. The TGI (NCI-H23 lung) was 83.8 µM, the TGI (MALME-3M melanoma) was 22.3 µM and the TGI (SK-MEL-2 melanoma) was 29.3 µM. The TGI (MOLT-4 leukemia) was 34.3 µM, the TGI (HL-60(TB) leukemia) was 37.6 µM and the TGI (SK-MEL-28 melanoma) was 24.6 µM. It also gave a TGI (HCC-2998 colon) of 53.8 µM, a TGI (OVCAR-4 ovarian) of 110 µM and a TGI (RPMI-8226 leukemia) of 40.3 µM. For the same compound, the TGI (SNB-19 CNS) was 116 µM, the TGI (NCI-H460 lung) was 37.1 µM and the TGI (SW-620 colon) was 52.5 µM. It also gave a TGI (CAKI-1 renal) of 57.6 µM, a TGI (UACC-62 melanoma) of 39.8 µM and a TGI (UACC-257 melanoma) of 24.6 µM. For the same compound, the TGI (HT29 colon) was 48.7 µM, the TGI (RXF 393 renal) was 23.4 µM and the TGI (HCT-116 colon) was 45.5 µM. It also gave a TGI (SF-539 CNS) of 32 µM, a TGI (CCRF-CEM leukemia) of 36.9 µM and a TGI (SNB-78 CNS) of 86.9 µM. The TGI (KM20L2 colon) was 45.7 µM, the TGI (NCI-H522 lung) was 84.9 µM and the TGI (SF-295 CNS) was 46.8 µM. For the same compound, the TGI (SK-OV-3 ovarian) was 62.6 µM, the TGI (A498 renal) was 46.1 µM and the TGI (DLD-1 colon) was 73.1 µM. For the same compound, the TGI (OVCAR-5 ovarian) was 56.6 µM, the TGI (U251 CNS) was 79 µM and the TGI (DMS 273 small cell lung) was 50.6 µM.

Compound `Nc1nc(-c2ccccc2)c(Cl)c(-c2cc(Cl)ccc2O)n1` has a TGI (MCF7 breast) greater than 100 µM, a TGI (OVCAR-8 ovarian) of 33.8 µM and a TGI (HCT-15 colon) greater than 100 µM. The TGI (SK-MEL-5 melanoma) was 59.6 µM, the TGI (XF 498 CNS) was 47.5 µM and the TGI (LXFL 529 NSCLC) was greater than 73.1 µM. It also gave a TGI (PC-3 prostate) greater than 100 µM, a TGI (RXF-631 renal) greater than 100 µM and a TGI (EKVX NSCLC) greater than 100 µM. For the same compound, the TGI (SF-268 CNS) was greater than 83.1 µM, the TGI (DU-145 prostate) was greater than 100 µM and the TGI (COLO 205 colon) was greater than 100 µM. It also gave a TGI (TK-10 renal) of 42.6 µM, a TGI (IGROV1 ovarian) of 54.7 µM and a TGI (NCI-H226 lung) of 61.3 µM. For the same compound, the TGI (LOX IMVI melanoma) was greater than 59.2 µM, the TGI (OVCAR-3 ovarian) was 24.2 µM and the TGI (HOP-92 NSCLC) was greater than 97.3 µM. The TGI (UO-31 renal) was 46.6 µM, the TGI (ACHN renal) was 21.5 µM and the TGI (HOP-18 NSCLC) was greater than 94.3 µM. It also gave a TGI (SR leukemia) greater than 100 µM, a TGI (SN12C renal) of 87.5 µM and a TGI (SNB-75 CNS) of 43.9 µM. The TGI (HOP-62 NSCLC) was 20.1 µM, the TGI (KM12 colon) was greater than 87.9 µM and the TGI (DMS 114 small cell lung) was 66.6 µM. The TGI (A549 NSCLC) was 71 µM, the TGI (K-562 leukemia) was greater than 46.4 µM and the TGI (M19-MEL melanoma) was greater than 100 µM. The TGI (NCI-H23 lung) was 67.2 µM, the TGI (MALME-3M melanoma) was greater than 100 µM and the TGI (SK-MEL-2 melanoma) was 99.8 µM. It also gave a TGI (MOLT-4 leukemia) greater than 100 µM, a TGI (HL-60(TB) leukemia) greater than 100 µM and a TGI (SK-MEL-28 melanoma) greater than 100 µM. The TGI (HCC-2998 colon) was greater than 100 µM, the TGI (OVCAR-4 ovarian) was 66.4 µM and the TGI (RPMI-8226 leukemia) was greater than 100 µM. It also gave a TGI (SNB-19 CNS) of 47 µM, a TGI (NCI-H460 lung) of 99.3 µM and a TGI (MDA-MB-231 breast) greater than 100 µM. For the same compound, the TGI (SW-620 colon) was greater than 100 µM, the TGI (CAKI-1 renal) was 47.2 µM and the TGI (UACC-62 melanoma) was greater than 100 µM. For the same compound, the TGI (UACC-257 melanoma) was greater than 100 µM, the TGI (786-0 renal) was 57.8 µM and the TGI (HT29 colon) was greater than 100 µM. The TGI (RXF 393 renal) was 41.9 µM, the TGI (HCT-116 colon) was 27.1 µM and the TGI (BT-549 breast) was greater than 100 µM. For the same compound, the TGI (MDA-N) was greater than 100 µM, the TGI (SF-539 CNS) was 66.5 µM and the TGI (CCRF-CEM leukemia) was greater than 100 µM. The TGI (SNB-78 CNS) was greater than 82.7 µM, the TGI (KM20L2 colon) was greater than 100 µM and the TGI (NCI-H522 lung) was greater than 62.9 µM. For the same compound, the TGI (SF-295 CNS) was greater than 94.3 µM, the TGI (T-47D breast) was 36.4 µM and the TGI (SK-OV-3 ovarian) was 49.3 µM. The TGI (M14 melanoma) was greater than 100 µM, the TGI (A498 renal) was greater than 76.5 µM and the TGI (DLD-1 colon) was greater than 100 µM. It also gave a TGI (MDA-MB-435) greater than 100 µM, a TGI (OVCAR-5 ovarian) greater than 100 µM and a TGI (U251 CNS) of 45.1 µM. The TGI (DMS 273 small cell lung) was 90.9 µM.
